# From PubChem BioAssay AID1996
# Details: buffer; pH 7.4; 200.0 µM
row,Structure (SMILES),solubility kinetic
1,COc1ccc(C(O)C(C)NC(C)C(O)c2ccc(OC)cc2)cc1 (stereo not given),43.3 µg/mL
2,O=Cc1ccc(C(=O)OCC(=O)N2CCCC2)cc1,36.3 µg/mL
3,N#C/C(=C\C=C\c1ccccc1)C(=O)N1CCCC1,7.3 µg/mL
4,COc1ccc2c([N+](=O)[O-])c(N3CCCC3)[nH]c2c1,37.7 µg/mL
5,O=C(O)CCCC(=O)Nc1ccc(Oc2ncnc3cc(Cl)ccc23)nc1,> 58 µg/mL
6,Cl.N=C(c1cccc([N+](=O)[O-])c1)N1CCCCCC1,> 42.6 µg/mL
7,CN(C)c1ccc(C(=O)OCC(=O)NCCC2=CCCCC2)cc1,4.7 µg/mL
8,COCCNC(=O)c1ccc2c(Cl)c3c(nc2c1)CCC3,> 45.7 µg/mL
9,O=C(CN1C(=O)NC2(CCCC2)C1=O)Nc1cc(S(=O)(=O)N2CCCCC2)ccc1Cl,65.8 µg/mL
10,CCOC(=O)c1sc(NC(=O)CCc2ccccc2)nc1C,< 0.3 µg/mL
11,NS(=O)(=O)c1ccc(CCNC(=S)NC(=O)c2ccccc2Br)cc1,3.3 µg/mL
12,Cc1cnc(NC(=O)CC(C)c2ccccc2)s1 (stereo not given),3 µg/mL
13,Cc1ccccc1C(=O)NCCCn1ccnc1,> 36.5 µg/mL
14,CC1(C)C(C=C(Cl)Cl)C1C(=O)NC(O)C(=O)c1ccccc1 (stereo not given),10.8 µg/mL
15,COc1ccc(COC(=O)Nc2c(SC)nsc2SC)cc1,1 µg/mL
16,COc1ccc(Br)cc1/C=C(\C(=O)O)c1ccc(S(=O)(=O)N2CCCC2)s1,> 70.9 µg/mL
17,CCOC(=O)C1CCCN(CCc2ccccc2)C1 (stereo not given),32.1 µg/mL
18,NS(=O)(=O)c1ccc(NC(=O)COC(=O)Cc2c[nH]c3ccccc23)cc1,37.8 µg/mL
19,CC(=O)c1cccc(-n2c(CCC(=O)O)ccc2-c2ccc(C)cc2)c1,> 52.1 µg/mL
20,Nc1ccc(-c2ccc(N)c([N+](=O)[O-])c2)cc1[N+](=O)[O-],0.2 µg/mL
21,Cl.NS(=O)(=O)c1ccc(CCNC/C=C/c2ccccc2)cc1,> 52.9 µg/mL
22,Cc1ccc(N2C(=O)C3ON(c4ccccc4)C(CC(C)C)C3C2=O)cc1 (stereo not given),11.6 µg/mL
23,CN1CCN(C2CC(=O)N(CCc3ccccc3)C2=O)CC1 (stereo not given),> 45.2 µg/mL
24,Cc1cc(C(=O)NCC2COc3ccccc3O2)c2ccccc2n1 (stereo not given),9.3 µg/mL

row,Structure (SMILES),solubility kinetic
1,CCC(=NCc1cccnc1)c1c(O)n(-c2ccc(C)cc2)c(=O)[nH]c1=O,31.6 µg/mL
2,CN(C)c1ccc(NC(=O)Nc2cccc3ccccc23)cc1,2.6 µg/mL
3,O=C(/C=C/c1cccc(F)c1)OCC(=O)c1ccc[nH]1,7.5 µg/mL
4,CCc1ccc(C(=O)NC(CCSC)C(=O)OC)cc1 (stereo not given),> 44.3 µg/mL
5,CCOC(=O)c1sc(NC(=O)c2ccccc2OCC)nc1C,< 0.4 µg/mL
6,CCCn1c(N2CCN(C(=O)/C=C/C(=O)O)CC2)nc2ccccc21,> 51.4 µg/mL
7,COc1ccc(C=NNC(=O)c2cc(C)oc2C)cc1O,> 43.2 µg/mL
8,CC(=O)Nc1ccc(S(=O)(=O)Nc2ccc(N3CCCCC3)cc2)cc1,51.9 µg/mL
9,O=C(NCC1CCCO1)C1CC(=O)N(c2cccc(Cl)c2)C1 (stereo not given),46.6 µg/mL
10,CCN(CC)c1ccc(S(=O)(=O)N2CCOCC2)cc1NC(=O)Nc1ccccc1,2.2 µg/mL
11,CC(C)C[C@H](N)c1nnc(SCc2ccc(Cl)cc2)o1.Cl,> 52.2 µg/mL
12,Cc1ccc2nc(-c3ccc(N)cc3)sc2c1,1.1 µg/mL
13,O=[N+]([O-])c1ccc(CSc2ncnc3ccccc23)cc1,5.6 µg/mL
14,Fc1cccc(CNC2CCN(CCc3ccccc3)CC2)c1,33.7 µg/mL
15,CCc1cccc(NC(=S)N2CCC(c3ccccc3)C2)c1 (stereo not given),4.6 µg/mL
16,Cc1[nH]c2ccc(C(=O)N3CCN(C)CC3)cc2c1C,> 40.7 µg/mL
17,CCOC(=O)c1ccc(Nc2ncnc3ccccc23)cc1.Cl,1.7 µg/mL
18,COc1cc(NC(=O)C2CC3CCC2C3)c(OC)cc1Cl (stereo not given),3.5 µg/mL
19,Cc1ccc(N/C=C/C(=O)c2ccccc2)cc1Br,< 0.7 µg/mL
20,O=S(=O)(Nc1cccc(F)c1)c1cccc2nsnc12,> 46.4 µg/mL
21,CCCC(=O)Nc1ccccc1NC(=O)c1ccc(OC(C)=O)cc1,47.5 µg/mL
22,Cn1cnc2cc(NCc3ccccc3Cl)ccc21,34.7 µg/mL
23,O=C(Nc1ccc(F)cc1F)c1cc2ccccc2oc1=O,< 0.6 µg/mL
24,Cc1ccc(S(=O)(=O)N2CCCCC2)cc1NC(=O)CSc1nnc(C2CC2)n1C,> 67.4 µg/mL

row,Structure (SMILES),solubility kinetic
1,O=C(OC(C(=O)NC1CCCCC1)c1ccccc1F)c1ccco1 (stereo not given),41.6 µg/mL
2,COC(=O)CNC(=O)CSc1ccccn1,> 36 µg/mL
3,O=C(Nc1ccn([C@H]2CC[C@@H](CO)O2)c(=O)n1)c1ccccc1,> 47.3 µg/mL
4,Cc1ccc(S(=O)(=O)n2cc(C=O)c3ccccc32)cc1,< 0.6 µg/mL
5,CS(=O)(=O)c1ccc2nc(NC(=O)C3CC3)sc2c1,25.3 µg/mL
6,O=C(NCC1CCCO1)c1cc2ccccc2o1 (stereo not given),> 36.8 µg/mL
7,O=C(NC(=S)NCC1CCCO1)c1ccco1 (stereo not given),37.6 µg/mL
8,O=C(c1ccccc1)N1CCCN(c2nccc(C(F)(F)F)n2)CC1,44.8 µg/mL
9,CCOc1ccccc1-n1c(C)cc(C=O)c1C,> 36.5 µg/mL
10,O=C(NCCNc1ccccc1[N+](=O)[O-])c1cc(F)c(F)cc1Cl,1.2 µg/mL
11,O=C(COC(=O)c1cc(F)cc(F)c1)NCCCc1ccccc1,3.7 µg/mL
12,O=C(Nc1ccccc1N1CCCC1)c1ccc2ccccc2c1,2.7 µg/mL
13,COc1ccccc1NCCC(=O)OCC(=O)Nc1ccccc1Cl,> 54.4 µg/mL
14,CC(C)(C)c1ccc(C(=O)NCCNC(=O)c2ccco2)cc1,39.5 µg/mL
15,COCc1cc(SC2CCCCC2)nc(C)n1,11.7 µg/mL
16,O=S(=O)(NCc1ccco1)c1ccc(Cl)cc1Cl,35 µg/mL
17,O=C(O)COCC(=O)Nc1ccc(-n2cnnn2)cc1,> 41.6 µg/mL
18,COc1c(Cl)cccc1-c1cn2ccc(C)cc2n1,1.4 µg/mL
19,Cc1ccccc1-c1nc(CN2CCSCC2)c(C)o1,26.1 µg/mL
20,O=C(CN1C(=O)NC2(CCCCCCC2)C1=O)NCc1ccc(F)cc1,42.9 µg/mL
21,Cc1ccc(C)c(C(=O)c2ccccc2NC(=O)c2ccccn2)c1,< 0.4 µg/mL
22,COc1ccc(C(=O)OCC(=O)NCc2ccc3c(c2)OCO3)cc1S(=O)(=O)N1CCOCC1,12.2 µg/mL
23,Cc1ccc(C)c(NC(=O)C2CC3CCC2C3)c1 (stereo not given),10.6 µg/mL
24,Cc1cccn2c(=O)c(/C=N/O)c(NCc3ccccc3)nc12,< 0.2 µg/mL

row,Structure (SMILES),solubility kinetic
1,CC1(C)CCN2CCC(C)(C)c3c(O)ccc1c32.CS(=O)(=O)O,19.6 µg/mL
2,CCOc1ccccc1/C=C/c1cc(C(=O)O)c2ccccc2n1,45.8 µg/mL
3,COc1ccc(N2CCC(CNC(=O)Nc3ccccc3)C2)cc1 (stereo not given),14.8 µg/mL
4,CCN(CC)c1ccc(CNCc2cccs2)cc1.Cl,44.2 µg/mL
5,Cc1ccccc1C(=O)Nc1nc2c(C)csc2c(=O)s1,< 0.3 µg/mL
6,Cc1nc2ccc([N+](=O)[O-])cc2nc1C,> 30.5 µg/mL
7,Cc1c(-n2cccc2C=O)cccc1[N+](=O)[O-],> 34.5 µg/mL
8,Cc1cc(Cl)ccc1NC(=O)C1COc2ccccc2O1 (stereo not given),18.1 µg/mL
9,O=C(O)C1CC(O)CN1C(=S)Nc1ccccc1 (stereo not given),> 39.9 µg/mL
10,CCN1CCCC1CNC(=S)Nc1ccc(C(C)=O)cc1 (stereo not given),> 45.8 µg/mL
11,CCCn1c(COc2ccccc2)nc2ccccc21,37.4 µg/mL
12,O=C(c1cc(COc2ccc(F)cc2F)on1)N1CCSCC1,35.8 µg/mL
13,O=S(=O)(Nc1ccc(C(F)(F)F)cc1)c1cccs1,45.1 µg/mL
14,CC1CC(C)CN(C(=O)CCCNC(=O)c2ccc(Cl)cc2)C1 (stereo not given),> 50.5 µg/mL
15,CCCCCCCn1ccc(O)c(CC(=O)OC)c1=O,> 42.2 µg/mL
16,FC(F)(F)c1nc(NCc2cccnc2)c2ccccc2n1,2.6 µg/mL
17,CC(=O)N[C@H]1C(O)O[C@H](CO)[C@@H](O)[C@@H]1O (stereo not given in full),> 33.2 µg/mL
18,Cc1csc(SCC(=O)NC(C)C2CC3CCC2C3)n1 (stereo not given),> 46.6 µg/mL
19,O=[N+]([O-])c1ccc(Nc2cccc(F)c2)nc1,13.4 µg/mL
20,CN(Cc1c(F)cccc1Cl)S(=O)(=O)c1cccs1,< 0.7 µg/mL
21,COC(=O)c1[nH]c2cc(OC)ccc2c1NC(=O)c1c(F)cccc1F,4.9 µg/mL
22,O=C(c1cnc2nc3ccccc3n2c1)c1cc(F)ccc1O,9.2 µg/mL
23,CCOc1ccc(C(=O)N2CCc3ccccc32)cc1,13.3 µg/mL
24,O=P(Nc1ccccc1)(Oc1ccccc1)Oc1ccccc1,< 0.7 µg/mL

row,Structure (SMILES),solubility kinetic
1,COc1ccc(C(=O)NCCCNC(=O)c2cnccn2)cc1,42.8 µg/mL
2,COc1ccccc1NS(=O)(=O)c1cn(C)cn1,> 40.1 µg/mL
3,Cc1[nH]c2c(C)cccc2c(=O)c1CN1CCCCCC1,39.5 µg/mL
4,Cl.c1ccc(SCCCCN2CCOCC2)cc1,38.2 µg/mL
5,Cc1ccc(NC(=O)CCc2c(C)[nH]c(=O)c(C#N)c2C)cc1,12.3 µg/mL
6,CCOC(=O)c1[nH]cnc1C(=O)Nc1ccc(Cl)cc1,2.2 µg/mL
7,Cc1nnc(SCC(=O)Nc2ccc(N(C)C)cc2)n(N)c1=O,> 50.2 µg/mL
8,Cc1ccc(O)c(CNc2nccs2)c1,7.4 µg/mL
9,COc1cc(N/C(N)=N/c2nc(C)cc(C)n2)cc(OC)c1,> 45.2 µg/mL
10,O=C(COc1cc(F)ccc1[N+](=O)[O-])NCC1CCCO1 (stereo not given),> 44.7 µg/mL
11,CC(C)c1ccc(NC2CCCN(C(=O)c3ccncc3)C2)cc1 (stereo not given),47.1 µg/mL
12,CCC(CC)C(=O)N1CCN(c2ccccc2)CC1,> 39.1 µg/mL
13,COc1ccc(OC)c(CNC(=O)C2CCC(=O)N2C(C)C)c1 (stereo not given),> 48.1 µg/mL
14,COc1ccc(CNC(=O)CC2Sc3ccccc3NC2=O)cc1 (stereo not given),1.6 µg/mL
15,O=C(Nc1ccccc1C(F)(F)F)C1CCCC1,30.4 µg/mL
16,Cc1nc(SCC(=O)NC(=O)NC(C)C)nc(C)c1C,> 44.5 µg/mL
17,CCC1CCCCN1C(=O)COc1ccc2c(c1)OCO2 (stereo not given),> 43.7 µg/mL
18,CC(=O)c1ccc(OCCOc2ccc(Cl)c3cccnc23)cc1,< 0.7 µg/mL
19,COCCNC(=S)N1CCC(Cc2ccccc2)CC1,> 43.9 µg/mL
20,NC(=O)C1CCN(C(=O)COc2ccc3c(c2)oc(=O)c2ccccc23)CC1,10.8 µg/mL
21,Cc1ccc(/C=C2/SC(=O)NC2=S)o1,31.1 µg/mL
22,COc1ccccc1CNC(=O)c1nccnc1CO,> 41 µg/mL
23,Cc1cccc(C(=O)OCC(=O)NC23CC4CC(CC(C4)C2)C3)c1O,8.9 µg/mL
24,Cc1nn2c(nc1=O)NNC2(C)C(C)(C)C (stereo not given),> 33.5 µg/mL
